{"source": "patent US20230393140A1", "about": "“BINDING ASSAYS INVOLVING A PLURALITY OF SYNTHETIC COMPOUNDS, TARGETS, AND COUNTER TARGETS” (SRI International, priority 2020, published 2023)", "target": "T1, IL-6R (Homo sapiens, UniProt P08887)", "T1 construct": "purchased Creative Biomart IL6R-584H", "T1 sequence (P08887 20-355 limits assumed)": "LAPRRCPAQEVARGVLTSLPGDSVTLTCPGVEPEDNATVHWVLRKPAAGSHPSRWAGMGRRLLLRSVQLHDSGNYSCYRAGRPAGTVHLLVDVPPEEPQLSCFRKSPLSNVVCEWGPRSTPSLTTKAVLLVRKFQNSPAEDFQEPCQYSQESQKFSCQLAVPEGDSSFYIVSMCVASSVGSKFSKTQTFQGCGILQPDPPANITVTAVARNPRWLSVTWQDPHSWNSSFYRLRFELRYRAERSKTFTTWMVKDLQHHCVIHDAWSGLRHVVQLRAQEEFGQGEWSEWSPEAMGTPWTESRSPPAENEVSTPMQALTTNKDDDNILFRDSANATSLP", "experiment": "MST binding affinity of resynthesized NNP hits to IL-6R", "conditions": "MST, NNP2 library hit, target SIL-6R, one-site binding model", "description": "Hit binding affinity to various targets were determined using Microscale Thermophoresis (MST). MST experiments were performed on a Monolith NT.115pico (NanoTemper Technologies GmbH, Munich, Germany). Measurements were performed at room temperature, in triplicate with incubation periods of 15, 30 and 45 minutes. […] Targets were labeled using Nanotemper Monolith 2nd Generation Protein Labeling Kits. RED-MALEIMIDE (Maleimide-647-dye) labeling kit was used for K-Ras and RED-NHS (NHS-647-dye) labeling kit was used for IL-6, IL-6R, TNFα and ASGPR. The buffer for the ASGPR contained 20 mM HEPES pH 7.4, 150 mM NaCl, 10 mM MgCl2, 2 mM CaCl2, 0.05% Pluronic F-127, and 1 mM DTT; for IL-6 contained 20 mM HEPES pH 7.4, 150 mM KCl, 10 mM MgCl2, and 0.1% Pluronic F-127; for the soluble IL-6 receptor 20 mM HEPES pH 7.4, 150 mM NaCl, 10 mM MgCl2, and 0.05% Tween-20; for K-Ras 20 mM HEPES pH 7.4, 150 mM NaCl, 10 mM MgCl2, 0.05% Tween-20 and 1 mM DTT; for TNFα 10 mM HEPES pH 7.4, 150 mM NaCl, 10 mM MgCl2, 0.05% Polysorbate-20. Triplicate data was analyzed using MO.AffinityAnalysis software (NanoTemper Technologies GmbH).", "key": {"[1]": {"conditions": "read-out: KD (nM) [95% conf. int]"}}, "note": "Read-outs that look alike come from different tables or passages of the source. Numbered stars: 1 amine (or outer) side, 2 acyl side, 3 side chain; on linkers, the order of the positions; unused ones are H or OH. Square brackets hold non-standard residues; d marks the D form. Peptide text beside a SMILES is read from it. * marks the point of attachment. 5FAM = O=C1OC2(c3ccc(O)cc3Oc3cc(O)ccc32)c2ccc(C(=O)*)cc21; NHCH2C6H4(4-CH2CONH2) = NC(=O)Cc1ccc(CN*)cc1; X1 = O=C(Cc1ccc(CN[*:1])cc1)[*:2]"}
{"smiles": "CC(C)C[C@H](NC(=O)[C@@H](CCCNC(=N)N)NC(=O)[C@@H](C)NC(=O)Cc1ccc(CNC(=O)[C@H](C)NC(=O)[C@@H](Cc2c[nH]c3ccccc23)NC(=O)[C@@H](CCC(=O)O)NC(=O)Cc2ccc(CNC(=O)[C@H](Cc3ccccc3)NC(=O)[C@@H](CCCCN)NC(=O)[C@@H](CCC(=O)O)NC(=O)Cc3ccc(CNC(=O)[C@H](CC(C)C)NC(=O)[C@@H](CCC(=O)O)NC(=O)[C@@H](CCCCN)NC(=O)Cc4ccc(CNC(=O)[C@H](CC(C)C)NC(=O)[C@H](NC(=O)[C@@H](CC(N)=O)NC(=O)Cc5ccc(CNC(=O)[C@@H](NC(=O)[C@@H](CC(N)=O)NC(=O)[C@H]6CCCN6C(=O)Cc6ccc(CNC(=O)[C@H](Cc7ccccc7)NC(=O)[C@@H](Cc7c[nH]c8ccccc78)NC(=O)[C@@H](CCCNC(=N)N)NC(=O)c7ccc8c(c7)C(=O)OC87c8ccc(O)cc8Oc8cc(O)ccc87)cc6)C(C)C)cc5)[C@H](C)O)cc4)cc3)cc2)cc1)C(=O)NCc1ccc(CC(=O)N[C@H](CCC(=O)O)C(=O)N[C@H](CCCNC(=N)N)C(=O)N[C@H](C(=O)NCc2ccc(CC(=O)N[C@H](Cc3ccccc3)C(=O)N[C@H](CCCCN)C(=O)NCC(=O)NCc3ccc(CC(N)=O)cc3)cc2)C(C)C)cc1", "note": "[IL6R-87-1, Fluorescein-(D)Arg-(D)Trp-(L)Phe-PAM-(D)Pro-(D)Asn-(L)Val-PAM-(D)Asn-(D)Thr-(L)Leu-PAM-(D)Lys-(D)Glu-(L)Leu-PAM-(D)Glu-(D)Lys-(L)Phe-PAM-(D)Glu-(D)Trp-(L)Ala-PAM-(D)Ala-(D)Arg- (L)Leu-PAM-(D)Glu-(D)Arg-(L)Val-PAM-(D)Phe-(D)Lys-Gly-PAM] (5FAM-[dR][dW]F[X1][dP][dN]V[X1][dN][dT]L[X1][dK][dE]L[X1][dE][dK]F[X1][dE][dW]A[X1][dA][dR]L[X1][dE][dR]V[X1][dF][dK]G-{NHCH2C6H4(4-CH2CONH2)})", "values": [{"measurement": "Kd", "result": 1.2, "unit": "nM"}]}
{"smiles": "CC(C)C[C@H](NC(=O)[C@@H](CCCNC(=N)N)NC(=O)[C@@H](C)NC(=O)Cc1ccc(CNC(=O)[C@H](CC(C)C)NC(=O)[C@@H](CCCNC(=N)N)NC(=O)[C@@H](CCC(=O)O)NC(=O)Cc2ccc(CNC(=O)[C@H](Cc3ccccc3)NC(=O)[C@@H](CCCCN)NC(=O)[C@@H](CCC(=O)O)NC(=O)Cc3ccc(CNC(=O)[C@H](CC(C)C)NC(=O)[C@@H](CCC(=O)O)NC(=O)[C@@H](CCCCN)NC(=O)Cc4ccc(CNC(=O)[C@H](CC(C)C)NC(=O)[C@H](NC(=O)[C@@H](CC(N)=O)NC(=O)Cc5ccc(CNC(=O)[C@H](Cc6ccccc6)NC(=O)[C@@H](CO)NC(=O)[C@@H](CCC(=O)O)NC(=O)Cc6ccc(CNC(=O)[C@H](CC(C)C)NC(=O)[C@@H](CC(C)C)NC(=O)[C@@H](Cc7ccc(O)cc7)NC(=O)c7ccc8c(c7)C(=O)OC87c8ccc(O)cc8Oc8cc(O)ccc87)cc6)cc5)[C@H](C)O)cc4)cc3)cc2)cc1)C(=O)NCc1ccc(CC(=O)N[C@H](Cc2c[nH]c3ccccc23)C(=O)N[C@H](CCCCN)C(=O)N[C@@H](CC(C)C)C(=O)NCc2ccc(CC(=O)N[C@H](Cc3ccccc3)C(=O)N[C@H](CCCCN)C(=O)NCC(=O)NCc3ccc(CC(N)=O)cc3)cc2)cc1", "note": "[IL6R-87-2] (5FAM-[dY][dL]L[X1][dE][dS]F[X1][dN][dT]L[X1][dK][dE]L[X1][dE][dK]F[X1][dE][dR]L[X1][dA][dR]L[X1][dW][dK]L[X1][dF][dK]G-{NHCH2C6H4(4-CH2CONH2)})", "values": [{"measurement": "Kd", "setting": "[1]", "result": 0.8, "unit": "nM"}]}
{"smiles": "CC(C)C[C@H](NC(=O)[C@@H](CCCNC(=N)N)NC(=O)[C@@H](C)NC(=O)Cc1ccc(CNC(=O)[C@H](CC(C)C)NC(=O)[C@@H](CCCNC(=N)N)NC(=O)[C@@H](CCC(=O)O)NC(=O)Cc2ccc(CNC(=O)[C@H](C)NC(=O)[C@@H](CCCCN)NC(=O)[C@@H](Cc3ccc(O)cc3)NC(=O)Cc3ccc(CNC(=O)[C@H](Cc4ccccc4)NC(=O)[C@@H](CC(N)=O)NC(=O)[C@@H](Cc4ccc(O)cc4)NC(=O)Cc4ccc(CNC(=O)[C@H](CC(C)C)NC(=O)[C@H](NC(=O)[C@@H](CC(N)=O)NC(=O)Cc5ccc(CNC(=O)[C@H](Cc6ccccc6)NC(=O)[C@@H](CO)NC(=O)[C@@H](CCC(=O)O)NC(=O)Cc6ccc(CNC(=O)[C@H](Cc7ccccc7)NC(=O)[C@@H](Cc7c[nH]c8ccccc78)NC(=O)[C@@H](CCCNC(=N)N)NC(=O)c7ccc8c(c7)C(=O)OC87c8ccc(O)cc8Oc8cc(O)ccc87)cc6)cc5)[C@H](C)O)cc4)cc3)cc2)cc1)C(=O)NCc1ccc(CC(=O)N[C@H](CCC(=O)O)C(=O)N[C@H](CCCNC(=N)N)C(=O)N[C@H](C(=O)NCc2ccc(CC(=O)N[C@H](Cc3ccccc3)C(=O)N[C@H](CCCCN)C(=O)NCC(=O)NCc3ccc(CC(N)=O)cc3)cc2)C(C)C)cc1", "note": "[IL6R-87-3, Fluorescein-(D)Arg-(D)Trp-(L)Phe-PAM-(D)Glu-(D)Ser-(L)Phe-PAM-(D)Asn-(D)Thr-(L)Leu-PAM-(D)Tyr-(D)Asn-(L)Phe-PAM-(D)Tyr-(D)Lys-(L)Ala-PAM-(D)Glu-(D)Arg-(L)Leu-PAM-(D)Ala-(D)Arg- (L)Leu-PAM-(D)Glu-(D)Arg-(L)Val-PAM-(D)Phe-(D)Lys-Gly-PAM] (5FAM-[dR][dW]F[X1][dE][dS]F[X1][dN][dT]L[X1][dY][dN]F[X1][dY][dK]A[X1][dE][dR]L[X1][dA][dR]L[X1][dE][dR]V[X1][dF][dK]G-{NHCH2C6H4(4-CH2CONH2)})", "values": [{"measurement": "Kd", "result": 19, "unit": "nM"}]}
{"smiles": "CC(C)C[C@H](NC(=O)[C@@H](CCCNC(=N)N)NC(=O)[C@@H](C)NC(=O)Cc1ccc(CNC(=O)[C@H](Cc2ccccc2)NC(=O)[C@@H](CCC(=O)O)NC(=O)[C@H]2CCCN2C(=O)Cc2ccc(CNC(=O)[C@@H](NC(=O)[C@@H](CCCNC(=N)N)NC(=O)[C@@H](Cc3c[nH]c4ccccc34)NC(=O)Cc3ccc(CNC(=O)[C@H](CC(C)C)NC(=O)[C@@H](CCC(=O)O)NC(=O)[C@@H](CCCCN)NC(=O)Cc4ccc(CNC(=O)[C@H](Cc5ccccc5)NC(=O)[C@@H](CO)NC(=O)[C@@H](CCCNC(=N)N)NC(=O)Cc5ccc(CNC(=O)[C@H](Cc6ccccc6)NC(=O)[C@@H](CO)NC(=O)[C@@H](CCC(=O)O)NC(=O)Cc6ccc(CNC(=O)[C@H](Cc7ccccc7)NC(=O)[C@H](NC(=O)[C@@H](CC(N)=O)NC(=O)c7ccc8c(c7)C(=O)OC87c8ccc(O)cc8Oc8cc(O)ccc87)C(C)C)cc6)cc5)cc4)cc3)C(C)C)cc2)cc1)C(=O)NCc1ccc(CC(=O)N2CCC[C@@H]2C(=O)N[C@H](CCCNC(=N)N)C(=O)N[C@@H](C)C(=O)NCc2ccc(CC(=O)N[C@H](Cc3ccccc3)C(=O)N[C@H](CCCNC(=N)N)C(=O)NCC(=O)NCc3ccc(CC(N)=O)cc3)cc2)cc1", "note": "[IL6R-87-4] (5FAM-[dN][dV]F[X1][dE][dS]F[X1][dR][dS]F[X1][dK][dE]L[X1][dW][dR]V[X1][dP][dE]F[X1][dA][dR]L[X1][dP][dR]A[X1][dF][dR]G-{NHCH2C6H4(4-CH2CONH2)})", "values": [{"measurement": "Kd", "setting": "[1]", "result": 22, "unit": "nM"}]}
